From patent CN109776561A, “化合物cytorhizins B和C及其制备方法和在制备抗肿瘤药物中的应用” (Institute of Microbiology of Guangdong Academy of Sciences, priority 2019, dated 2019) come the findings set out here.

Molecules are shown by their SMILES.

Assay type in all cases: cell-based
Test [1] relates to HepG-2 liver cancer cells (肝癌细胞HepG-2). As to the kind of experiment: SRB cytotoxicity assay, HepG-2. The note with it: HepG-2, SRB, 72 h.
Test [2] concerns NCI-H460 cells (NCI-H460细胞). As to the kind of experiment: SRB cytotoxicity assay, NCI-H460. The note with it: 72 h.
Test [3] relates to MCF-7 breast cancer cells (乳腺癌细胞MCF-7). As to the kind of experiment: SRB cytotoxicity assay, MCF-7. The note with it: MCF-7, SRB, 72 h.
Test [4] deals with SF-268 nerve cancer cells (神经癌细胞SF-268). As to the kind of experiment: SRB cytotoxicity assay, SF-268. The note with it: SF-268, SRB, 72 h.

Consider `Cc1cc(O)c2c3c1OC(C)(C)[C@@H](CCl)O[C@]31Oc3cccc(O)c3[C@@]2(O)[C@H]1C` [cytorhizin B], for which the IC50 in test [1] was found to be 29.4 µM; in test [2], 32.8 µM; in test [3], 30.1 µM; in test [4], 34.8 µM.

Turning to `COC[C@H]1O[C@]23Oc4cccc(O)c4[C@](O)(c4c(O)cc(C)c(c42)OC1(C)C)[C@H]3C` [cytorhizin C], the IC50 in test [1] is 68.6 µM; in test [2], 54.7 µM; in test [3], 58.6 µM; in test [4], 36.8 µM.

For the molecule `N.N.[Cl][Pt][Cl]` [顺铂, reference compound], the IC50 was determined as 2.4 µM in test [1], 1.6 µM in test [2], 3.2 µM in test [3] and 3.3 µM in test [4].
